Where two headings read alike, the source gives them in different places.
What was measured:
[1] = test system: preformed biofilm of P. aeruginosa PA14; assay: microbe, parasite or virus in culture; conditions: for % Inhibition (30 min) / Biovolume (30 min): 30 min exposure; for Biovolume (30 min): non-treated 22.19
Protocol: (§1) Briefly, from an 18 h pre-culture, a bacterial suspension at OD600=0.08 prepared in sterile physiological saline solution was injected into each channel of the flow chamber. The bacteria were left for 2 h at 37° C. under static conditions (no flow) so that they adhered to the glass slide. Study of biofilm formation was then conducted under a flow of LB medium (2.5 ml/h) for 24 h at 37° C.
[…] Treatment of the preformed biofilm was conducted for 2 h at 37° C. under static conditions.
(§2) Treatment of the preformed biofilm was conducted for 2 h at 37° C. under static conditions.
To test the membrane integrity of the bacteria, a mixture of 5 μM SYTO 9 Green and 0.3 μM propidium iodide (PI) was used (Live/Dead BacLight Bacterial Viability Kit, Invitrogen).
as §2, §2, §2, §2
Treatment of the biofilm was conducted for 2 h at 37° C. under static conditions. […] Next, 300 μl of tobramycin (50 μg/ml) or 300 μl of milliQ sterile water (control conditions) were injected into the two channels of the flow chamber pre-exposed to ANP. The second treatment of the preformed biofilm was again conducted for 2 h at 37° C. under static conditions.

[2] = test system: P. aeruginosa; conditions: observed previously; by activating bacterial quorum-sensing systems; cited from earlier work
[3] = test system: P. aeruginosa biofilm; conditions: Desriac et al. 2017, 2018; Rosay et al. 2015; cited from earlier work
[4] = test system: P. aeruginosa biofilm in formation; assay: Formation of the P. aeruginosa biofilm under dynamic conditions; format: cell-based, Pseudomonas aeruginosa; conditions: ANP 0.1 μM
Protocol: After 3 h pre-culture in LB medium at 37° C., P. aeruginosa was inoculated at OD600=0.08 in LB medium and sub-cultured for 2 h.
The ANP (Calbiochem Merck) was added 2 h after the start of culture, a time corresponding to the middle of the exponential growth phase of the bacteria. Final bacterial density and absence of contamination were controlled by seeding.
as §1, with “The biofilms were formed under dynamic conditions at 37° C. in a 3-channel flow chamber as described in Bazire et al. (2010) J. Bacteriol. 192:3001-3010. Briefly,” for “Briefly,”

[5] = target: AmiC sensor of P. aeruginosa (Pseudomonas aeruginosa, UniProt P27017); conditions: Rosay et al. (2015); cited from earlier work
Sequence of AmiC sensor of P. aeruginosa (P27017 whole entry): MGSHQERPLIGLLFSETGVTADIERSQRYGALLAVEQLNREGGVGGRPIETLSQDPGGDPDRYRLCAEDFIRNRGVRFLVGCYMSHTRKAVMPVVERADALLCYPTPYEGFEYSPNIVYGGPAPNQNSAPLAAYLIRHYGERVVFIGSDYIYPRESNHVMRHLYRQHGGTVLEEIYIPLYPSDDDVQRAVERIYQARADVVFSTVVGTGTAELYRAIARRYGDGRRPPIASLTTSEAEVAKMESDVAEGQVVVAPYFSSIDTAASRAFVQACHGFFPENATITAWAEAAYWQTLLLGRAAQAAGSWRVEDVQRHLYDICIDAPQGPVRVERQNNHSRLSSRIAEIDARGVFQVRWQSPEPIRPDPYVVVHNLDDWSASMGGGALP

[6] = test system: P. aeruginosa P14; assay: Growth of P. aeruginosa in liquid medium in the presence of ANP; format: cell-based, Pseudomonas aeruginosa; conditions: ANP at 1 μM and 0.1 μM
Protocol: The bacterial strains were cultured at 37° C. in Luria Bertani medium (LB) under agitation.
To determine a potential direct effect of ANP on the growth of P. aeruginosa, the inventors studied the impact of ANP at 1 μM and 0.1 μM on the growth of P. aeruginosa P14 in a liquid medium.

[7] = test system: A549 human pulmonary epithelial cells infected with P. aeruginosa PA14; assay: LDH release by A549 cells infected with P. aeruginosa PA14 pre-treated with ANP (bacterial cytotoxicity); format: cell-based; conditions: for % LDH (dead cells): 6 h, MOI 10, PA14 non-treated 56.4 ± 5.5
Protocol: The line of human pulmonary epithelial cells of type II A549 (ATCC-CCL185TM, ATCC Manassas, Va.) was placed in culture at 37° C. under 5% CO2 atmosphere in DMEM medium (Lonza) supplemented with 10% foetal calf serum (Lonza) and 1% penicillin and streptomycin (Penistrep, Lonza). Under routine cell culture, the cells were seeded in a 25 ml flask and used at 80% confluence.
For cytotoxicity tests, the cells were seeded in 24-well plates to a final density of 3×10^5 cells per well and cultured 48 h before use. For a minimum time of 24 h before the infection tests, the cells were deprived of antibiotics and foetal calf serum through the addition of a medium without fresh serum.
The amount of LDH released by the eukaryote cells in the presence of bacteria, whether or not exposed to ANP (concentration of 1 μM at 10 nM), was determined using the Cytotox 96 enzymatic test (Promega, Charbonnières, France). The A549 cells were incubated for 6 h on a control (without treatment) or with P. aeruginosa PA14 (pre-treated with ANP) with a multiplicity of infection of 10. A lysis buffer consisting of Triton X-100 solution (9% in water), was employed to determine the maximum LDH potentially released by the A549 cells under the experimental conditions (100% LDH release). A level of background noise was determined using the culture medium alone and defined as 0% LDH release, to exclude contribution by the culture medium. Percentage LDH release in the cell population was then calculated with the equation: […]

[8] = Pseudomonas aeruginosa, PA14, 2 h

C[C@@H](O)[C@H]1C(=O)N2C(C(=O)O)=C(SCCN=CN)C[C@H]12 [Imipenem, imipenem, reference compound]
Biovolume [1]: 7.0 μm^3/μm^2
inhibition at 0.5 µg/mL [1, 8]: 75%

C-type Natriuretic Peptide [CNP]
bacterial virulence and cytotoxicity [2]: slightly increased
formation of P. aeruginosa biofilm [3]: prevent the formation

lebetin 1β [Lebetin L1 beta]
dispersion of established biofilm (observation) ([1]; 10^−8 M, 2 h exposure): strongly dispersed
% Inhibition (2 h) ([1]; Lebetin L1 beta 10^−8 M, 2 h exposure): 67.0%
Biovolume (2 h) ([1]; Lebetin L1 beta 10^−8 M, 2 h exposure, non-treated 21.0): 6.9 μm^3/μm^2

CC[C@H](C)[C@@H]1NC(=O)[C@H](CCCNC(=N)N)NC(=O)[C@H](CC(=O)O)NC(=O)[C@H](CCSC)NC(=O)[C@H](CCCNC(=N)N)NC(=O)CNC(=O)CNC(=O)[C@H](Cc2ccccc2)NC(=O)[C@@H](NC(=O)[C@H](CO)NC(=O)[C@H](CO)NC(=O)[C@H](CCCNC(=N)N)NC(=O)[C@H](CCCNC(=N)N)NC(=O)[C@H](CC(C)C)NC(=O)[C@@H](N)CO)CSSC[C@@H](C(=O)N[C@@H](CC(N)=O)C(=O)N[C@@H](CO)C(=O)N[C@@H](Cc2ccccc2)C(=O)N[C@@H](CCCNC(=N)N)C(=O)N[C@@H](Cc2ccc(O)cc2)C(=O)O)NC(=O)CNC(=O)[C@H](CC(C)C)NC(=O)CNC(=O)[C@H](CO)NC(=O)[C@H](CCC(N)=O)NC(=O)[C@H](C)NC(=O)CNC1=O [ANP, Atrial Natriuretic Peptide]
formation of a P. aeruginosa biofilm [4]: fully prevents
binding onto the AmiC sensor of P. aeruginosa [5]: strong affinity
% Inhibition (30 min) ([1]; ANP 0.3 ng/ml): 57.5 (*) %
Biovolume (30 min) ([1]; ANP 0.3 ng/ml): 9.5 μm^3/μm^2
% Inhibition (2 h) ([1]; ANP 0.3 ng/ml, 2 h exposure): 45.1 (**) %
Biovolume (2 h) ([1]; ANP 0.3 ng/ml, 2 h exposure, non-treated 21.1 (mean of all controls)): 10.6 μm^3/μm^2
% Inhibition (30 min) ([1]; ANP 3 ng/ml): 59.1 (*) %
Biovolume (30 min) ([1]; ANP 3 ng/ml): 8.8 μm^3/μm^2
% Inhibition (2 h) ([1]; ANP 3 ng/ml, 2 h exposure): 65.9 (***) %
Biovolume (2 h) ([1]; ANP 3 ng/ml, 2 h exposure, non-treated 21.1 (mean of all controls)): 6.3 μm^3/μm^2
% Inhibition (30 min) ([1]; ANP 30 ng/ml): 69.0 (*) %
Biovolume (30 min) ([1]; ANP 30 ng/ml): 6.7 μm^3/μm^2
% Inhibition (2 h) ([1]; ANP 30 ng/ml, 2 h exposure): 72.5 (***) %
Biovolume (2 h) ([1]; ANP 30 ng/ml, 2 h exposure, non-treated 21.1 (mean of all controls)): 4.4 μm^3/μm^2
biofilm structure dispersed ([1]; ANP 0.1 μM for 2 h, even 30 minutes): about 80%
thickness of the biofilm ([1]; ANP 0.1 μM, 2 h exposure): major reduction
bacterial biomass reduced compared with control ([1]; ANP 0.1 μM, 2 hours exposure (P<0.001)): 81.4±4.1%
% Inhibition (30 min) ([1]; ANP 300 ng/ml (0.1 μM)): 80.2 (*) %
Biovolume (30 min) ([1]; ANP 300 ng/ml (0.1 μM)): 4.4 μm^3/μm^2
% Inhibition (2 h) ([1]; ANP 300 ng/ml (0.1 μM), 2 h exposure): 81.4 (***) %
Biovolume (2 h) ([1]; ANP 300 ng/ml (0.1 μM), 2 h exposure, non-treated 21.1 (mean of all controls)): 4.9 μm^3/μm^2
% Inhibition ([1]; ANP 10^−8 M alone, 2 h (colistin experiment)): 73.5%
% Inhibition ([1]; ANP 10^−8 M alone, 2 h (imipenem experiment)): 75.4%
% Inhibition ([1]; ANP 10^−8 M alone, 2 h (polymyxin B experiment)): 75.3%
Biovolume ([1]; ANP 10^−8 M alone, 2 h, non-treated 18.2 (polymyxin B experiment)): 4.5 μm^3/μm^2
Biovolume ([1]; ANP 10^−8 M alone, 2 h, non-treated 18.5 (colistin experiment)): 4.9 μm^3/μm^2
Biovolume ([1]; ANP 10^−8 M alone, 2 h, non-treated 28.0 (imipenem experiment)): 6.9 μm^3/μm^2
% Inhibition ([1]; ANP 10^−9 M 2 h, then sterile water 2 h (sequential experiment)): 68.7%
Biovolume ([1]; ANP 10^−9 M 2 h, then sterile water 2 h (sequential experiment), non-treated 13.1): 4.1 μm^3/μm^2
% Inhibition ([1]; ANP 10^−9 M alone, 2 h (table with tobramycin 10 μg/ml)): 66.4%
% Inhibition ([1]; ANP 10^−9 M alone, 2 h (table with tobramycin 50 μg/ml)): 66.4%
Biovolume ([1]; ANP 10^−9 M alone, 2 h, non-treated 13.5 (table with tobramycin 10 μg/ml)): 4.53 μm^3/μm^2
Biovolume ([1]; ANP 10^−9 M alone, 2 h, non-treated 13.5 (table with tobramycin 50 μg/ml)): 4.53 μm^3/μm^2
remaining bacterial biomass reduced compared with control ([1]; ANP (0.1 μM per Example 1), 30 minutes exposure (P<0.05)): 80.2±2.0%
pre-established P. aeruginosa biofilms destroyed ([1]; low dose (on and after 0.1 nM), as soon as 30 min after administration): about 80%
dispersion of established biofilm (observation) ([1]; on and after the lowest concentration of 0.3 ng/ml, as soon as after exposure for 30 min): strongly dispersed
effect on growth of P. aeruginosa [6]: None of the tested ANP concentrations affected bacterial growth
impact on the cytotoxic activity of P. aeruginosa in pulmonary cells ([7]; ANP 1 μM to 10 nM): no impact
% LDH (dead cells) ([7]; PA14 + ANP 10^−6 M): 58.9 ± 5.8%
% LDH (dead cells) ([7]; PA14 + ANP 10^−7 M): 53.5 ± 5.3%
% LDH (dead cells) ([7]; PA14 + ANP 10^−8 M): 54.5 ± 5.5%
formation of P. aeruginosa biofilm [3]: prevent the formation

polymyxin B [reference compound]
% Inhibition ([1]; Polymyxin B 4 μg/ml alone, 2 h): 59.3%
Biovolume ([1]; Polymyxin B 4 μg/ml alone, 2 h, non-treated 18.2): 7.4 μm^3/μm^2

lebetin 2α (GDNKPPKKGPPNGCFGHKIDRIGSHSGLGCNKVDDNKG) [Lebetin L2 alpha]
binding onto the AmiC sensor of P. aeruginosa [5]: strong affinity
dispersion of established biofilm (observation) ([1]; 10^−8 M, 2 h exposure): strongly and significantly dispersed
% Inhibition (2 h) ([1]; Lebetin L2 alpha 10^−8 M, 2 h exposure): 70.2 (***) %
Biovolume (2 h) ([1]; Lebetin L2 alpha 10^−8 M, 2 h exposure, non-treated 29.7): 8.9 μm^3/μm^2

NC[C@H]1O[C@H](O[C@H]2[C@H](O)[C@@H](O[C@H]3O[C@H](CO)[C@@H](O)[C@H](N)[C@H]3O)[C@H](N)C[C@@H]2N)[C@H](N)C[C@@H]1O [Tobramycin, tobramycin, reference compound]
inhibition at 10 µg/mL [1, 8]: 78.5%
inhibition at 50 µg/mL [1, 8]: 75.9%
Biovolume ([1]; Tobramycin 10 μg/ml alone, 2 h, non-treated 13.5): 2.9 μm^3/μm^2
Biovolume ([1]; Tobramycin 50 μg/ml alone, 2 h, non-treated 13.5): 3.26 μm^3/μm^2

colistin [reference compound]
% Inhibition ([1]; Colistin 1 μg/ml alone, 2 h): 88.6%
Biovolume ([1]; Colistin 1 μg/ml alone, 2 h, non-treated 18.5): 2.1 μm^3/μm^2

O=C(O)c1cn(C2CC2)c2cc(N3CCNCC3)c(F)cc2c1=O [Ciprofloxacin, ciprofloxacin, reference compound]
inhibition at 0.01 µg/mL [1, 8]: 90%
inhibition at 0.04 µg/mL [1, 8]: 99.3%

osteocrin
binding onto the AmiC sensor of P. aeruginosa [5]: strong affinity
dispersion of established biofilm (observation) ([1]; 10^−8 M, 2 h exposure): strongly and significantly dispersed
% Inhibition (2 h) ([1]; Osteocrin 10^−8 M, 2 h exposure): 59.4 (***) %
Biovolume (2 h) ([1]; Osteocrin 10^−8 M, 2 h exposure, non-treated 29.8): 12.1 μm^3/μm^2

Brain Natriuretic Peptide [BNP]
formation of P. aeruginosa biofilm [3]: prevent the formation
